The subject of data set [1] is 661W cells expressing CNGA3 plus WT CNGB3. In words: LDH-release cytotoxicity assay, cells expressing WT channels. The class given is cell-based, mouse. As to conditions: 24 h. Here is the method: The mouse photoreceptor 661W cell line used in this study was generously provided by Dr. Al-Ubaidi (University of Oklahoma Health Sciences Center, Oklahoma City, OK). The 661W cells were routinely maintained in Dulbecco’s modified Eagle’s medium (Gibco, Carlsbad, CA), supplemented with 10% fetal bovine serum (Gemini Bioproducts, Sacramento, CA) and 1% penicillin/streptomycin (Gibco), at 37 °C in a humidified incubator with 5% CO2; cells were subcultured every 3–5 days. The 661W cells were transfected with pOPRSVI plasmids encoding human cone CNG channel subunits using Lipofectamine™ 2000 and OptiMEM (Life Technologies, Carlsbad, CA) according to the manufacturer’s protocol for cells in suspension. […]
For most experiments, the LDH Cytotoxicity Detection Kit (Roche Applied Science) was used according to the manufacturer’s protocol (see also [37]). […] Following treatment, half of the culture medium was transferred to another 96-well plate and the LDH released into the culture medium was measured to assess the number of damaged/dead cells. Cells in the original plate were then lysed and the total amount of cellular LDH was assessed. The percentage cytotoxicity was then calculated from the ratio of LDH concentration in the medium/cells, and was normalized to the percentage cytotoxicity in untreated cells transfected with control pOPRSVI plasmid only.

Data set [2] deals with 661W cells expressing CNGA3 plus CNGB3 F525N. The note with it: 24 h. On the procedure: (§1) The mouse photoreceptor 661W cell line used in this study was generously provided by Dr. Al-Ubaidi (University of Oklahoma Health Sciences Center, Oklahoma City, OK). The 661W cells were routinely maintained in Dulbecco’s modified Eagle’s medium (Gibco, Carlsbad, CA), supplemented with 10% fetal bovine serum (Gemini Bioproducts, Sacramento, CA) and 1% penicillin/streptomycin (Gibco), at 37 °C in a humidified incubator with 5% CO2; cells were subcultured every 3–5 days. The 661W cells were transfected with pOPRSVI plasmids encoding human cone CNG channel subunits using Lipofectamine™ 2000 and OptiMEM (Life Technologies, Carlsbad, CA) according to the manufacturer’s protocol for cells in suspension. A reporter plasmid—a green fluorescent protein-expressing vector (pQBI25-fC2, Wako Pure Chemical Industries, Ltd., Japan) using a constitutive CMV promoter—was transfected under the same conditions to assess transfection efficiency. […] In addition, the pOPRSVI plasmid was transfected alone as a negative control. The amounts of each vector were as follows (µg/10 cm^2 culture surface): 2 FLAG- or GFP-CNGA3 plus 2 FLAG-CNGB3 (WT, T383fsX or F525N); 4 GFP; or 4 pOPRSVI.
(§2) For most experiments, the LDH Cytotoxicity Detection Kit (Roche Applied Science) was used according to the manufacturer’s protocol (see also [37]). Briefly, cultured 661W cells were transfected with the desired plasmid constructs as described above and then plated in 96-well tissue culture plates at a density of approximately 8×10^3 cells/well. Forty-eight hours after transfection, cells were treated with various concentrations of CPT-cGMP and/or CPT-cAMP (Sigma-Aldrich) alone or together with L-cis-diltiazem (Enzo Life Sciences, Inc., Farmingdale, NY) in Dulbecco’s modified Eagle’s medium supplemented with 1% fetal bovine serum for 24 h at 37 °C. Following treatment, half of the culture medium was transferred to another 96-well plate and the LDH released into the culture medium was measured to assess the number of damaged/dead cells. Cells in the original plate were then lysed and the total amount of cellular LDH was assessed. The percentage cytotoxicity was then calculated from the ratio of LDH concentration in the medium/cells, and was normalized to the percentage cytotoxicity in untreated cells transfected with control pOPRSVI plasmid only.

The subject of data set [3] is 661W cells expressing CNGA3 plus CNGB3 T383fsX. As to conditions: for relative cytotoxicity (LDH release, normalized to untreated vector-only control): 24 h. Here is the method:
as §1, §2

Where [4] appears, read: 1 µM CPT-cAMP coapplied with 0.1 µM CPT-cGMP.
[5] abbreviates: 10 µM CPT-cAMP combined with 0.1 µM CPT-cGMP.

This is an account of results in article PMC3692405, “Disease-associated mutations in CNGB3 promote cytotoxicity in photoreceptor-derived cells” (Molecular Vision, 2013).

Where two headings read alike, the source gives them in different places.

Regarding `Nc1ncnc2c1nc(Sc1ccc(Cl)cc1)n2[C@@H]1O[C@@H]2COP(=O)(O)O[C@H]2[C@H]1O` [CPT-cAMP, CPT-adenosine 3′,5′-cyclic monophosphate], the “relative cytotoxicity (LDH release, normalized to untreated vector-only control)” value is recorded as 0.98±0.03 in data set [1] (setting [4]), 1.31±0.06 in data set [2] (setting [4]), 1.67±0.08 in data set [2] (setting [5]) and 1.30±0.05 in data set [3] (setting [5]). For the same molecule, in data set [3] (various concentrations of CPT-cAMP coapplied with 0.1 µM CPT-cGMP), the “effect on relative cytotoxicity compared to CPT-cGMP treatment alone” value was “unaltered”.
Turning to `Nc1nc2c(nc(Sc3ccc(Cl)cc3)n2[C@@H]2O[C@@H]3COP(=O)(O)O[C@H]3[C@H]2O)c(=O)[nH]1` [CPT-cGMP, 8-(4-chlorophenylthio) guanosine 3′,5′-cyclic monophosphate], the “relative cytotoxicity (LDH release, normalized to untreated vector-only control)” value came to 1.11±0.04 in data set [1] (0.1 µM CPT-cGMP), 1.59±0.05 in data set [2] (0.1 µM CPT-cGMP alone) and 1.26±0.05 in data set [3] (0.1 µM CPT-cGMP).
